# Test results reported in patent US20050123560A1, “High purity and water dispersible extract and formulations of larrea tridentata leaf resin, and methods of making and using the same” (priority 2003, published 2005).
# Tests used:
# [1] = animal studies, ingestion; cited from earlier work
# [2] = Reduction of oxidized NDGA in methanolic solution by reducing agents, followed by chromatography; conditions: reducing agent at 100 mg/ml in methanolic solution of oxidized NDGA
structure (smiles),measurement,setting,value
"CC(Cc1ccc(O)c(O)c1)C(C)Cc1ccc(O)c(O)c1 (stereo not drawn) [NDGA, nordihydroguaiaretic acid]",kidney toxicity,[1],evidence of kidney toxicity
O=S([O-])S(=O)[O-].[Na+].[Na+] [sodium hydrosulfite],NDGA quinone remaining by chromatography after reduction,[2],still detectable
O=C1O[C@H]([C@@H](O)CO)C(O)=C1O [ascorbic acid],time to reduce oxidized NDGA,[2],approximately 1 minute
